Experimental data taken from patent publication US7910593B2, “Water-soluble prodrugs” (Chugai Seiyaku Kabushiki Kaisha, priority 2004, dated 2011).

What was measured:
[1] = Test Example 1: conversion of compound 2A into activated form in mouse serum; assay type: in vitro ADME; details: for compound 2A (measured values, %): mouse serum, 50 μM, 37° C.
Description: (§1) The percentages of compound 2A produced in Example 2 being converted into an activated form in sera of humans, mice, monkeys, and dogs were determined. The activated form is in a rapid equilibrium between the lactone form and the carboxylate form, which were quantified separately.
(§2) Compound 2A was incubated at 37° C. at a concentration of 50 μM in sera of humans, mice, monkeys, and dogs. Incubation was terminated at a given time (0, 30, 60, 120, and 360 minutes), and the samples were analyzed by HPLC after deproteinization treatments.
(§3) Conditions for the HPLC analysis are as follows: • HPLC conditions • Column: Develosil C30-UG-3, 3 μm, 50×4.6 mm I.D • Column Temperature: constant temperature at approximately 25° C. • Mobile phase: A: 10 mM phosphate buffer (pH4.7) • B: acetonitrile • /B (min): 90/10(0)→90/10(0.4)→40/60(6)→2/98(8)→90/10(9)→90/10(15)
(§4) Flow rate: 1.0 mL/min • Detection: photodiode array detector, detection wavelength 350 nm • Amount injected: 30 μL
(§5) Generally, camptothecins in solution are in a rapid equilibrium between a structure in which the carbonyl at position 3 forms a 6-membered cyclic ester with the oxygen at position 2, and its open-ring structure. The lactone form refers to the former condition and the carboxylate form refers to the latter condition.

[2] = Test Example 1: conversion of compound 2A into activated form in dog serum; assay type: in vitro ADME; details: for compound 2A (measured values, %): dog serum, 50 μM, 37° C.
Description: as §1, §2, §3, §4, §5

[3] = Test Example 5: conversion of compound 2A into activated form in mouse sera; assay type: in vitro ADME; details: for compound 2A (measured values, %): Test Example 5, mouse sera, 50 μM, 37° C.
Description: (§6) The percentages of compound 2A produced in Example 2 being converted into an activated form in sera of humans, rats, mice, monkeys, and dogs were determined. The activated form is in a rapid equilibrium between the lactone form and the carboxylate form, which were quantified separately.
(§7) Compound 2A was incubated at 37° C. at a concentration of 50 μM in sera of humans, mice, rats, monkeys, and dogs. Incubation was terminated at a given time (0, 30, 60, 120, and 360 minutes), and the samples were analyzed by HPLC after deproteinization treatments.
(§8) Conditions for the HPLC analysis are as follows: • HPLC conditions • Column: Develosil C30-UG-3, 3 μm, 35×4.6 mm I.D • Column Temperature: constant temperature at approximately 25° C. • Mobile phase: A: 10 mM phosphate buffer (pH4.7) • B: acetonitrile • /B (min): 90/10(0)→90/10(0.4)→40/60(6)→2/98(8)→90/10(9)→90/10(15) • Flow rate: 1.0 mL/min • Detection: photodiode array detector, detection wavelength 350 nm • Amount injected: 30 μL
as §5

[4] = Test Example 1: conversion of compound 2A into activated form in human serum; assay type: in vitro ADME; details: for compound 2A (measured values, %): human serum, 50 μM, 37° C.
Description: as §1, §2, §3, §4, §5

[5] = Test Example 5: conversion of compound 2A into activated form in monkey sera; assay type: in vitro ADME; details: for compound 2A (measured values, %): Test Example 5, monkey sera, 50 μM, 37° C.
Description: as §6, §7, §8, §5

[6] = test system: human colon cancer cell line HCT116; experiment: Test Example 4: antitumor effect in HCT116 tumor-bearing nude mice; assay type: in vivo, BALB/c nude mice; details: once per week for three weeks
Description: Antitumor effects were determined for representative examples of the group of compounds of the present invention. Tumor-bearing mice were generated by subcutaneous transplantation of human colon cancer cell line HCT116 obtained from American Type Culture Collection (Virginia, USA) into the right flank of BALB/c nude mice purchased from Charles River Japan, and used for determination of antitumor effects.
After a one-week quarantine period, the purchased nude mice were subjected to subcutaneous transplantation of 5×10^6 HCT116 cells at their right flank. Mice with a tumor size reaching 200 mm^3 or so were subjected to the experiment.
The compounds were dissolved in 1 mM citric bufferes saline, pH 4, and administered intravenously. The administration was carried out once per week for three weeks, for a total of three administrations. The antitumor effect was determined as tumor growth inhibition (TGI) using the following equation. Tumor growth inhibition (TGI) (%)={(1−mean tumor volume change in the drug-treated group/mean tumor volume change in the control group)×100} The results are shown in Table 6.

[7] = Test Example 3: solubility in distilled water; assay type: physicochemical; details: distilled water; read-out: Solubility in distilled water
From the text: The solubility of the water-soluble prodrugs obtained in the Examples (compounds 1A to 8A) in distilled water was compared to the solubility of (9S)-9-ethyl-9-hydroxy-1-pentyl-1H,12H-pyrano[3″,4″:6′,7′]indolizino[1′,2′:6,5]pyrido[4,3,2-de]quinazoline-10,13 (9H,15H)-dione (representative compound in Patent document 2: reference compound 1).

[8] = Test Example 1: conversion of compound 2A into activated form in monkey serum; assay type: in vitro ADME; details: for compound 2A (measured values, %): monkey serum, 50 μM, 37° C.
Description: as §1, §2, §3, §4, §5

[9] = Test Example 5: conversion of compound 2A into activated form in rat sera; assay type: in vitro ADME; details: for compound 2A (measured values, %): Test Example 5, rat sera, 50 μM, 37° C.
Description: as §6, §7, §8, §5

[10] = Test Example 5: conversion of compound 2A into activated form in dog sera; assay type: in vitro ADME; details: for compound 2A (measured values, %): Test Example 5, dog sera, 50 μM, 37° C.
Description: as §6, §7, §8, §5

CCCCCN1C=Nc2cccc3nc4c(c1c23)Cn1c-4cc2c(c1=O)COC(=O)[C@@]2(CC)OC(=O)CN(C)C(=O)CN.Cl [Compound 2A, (9S)-9-Ethyl-9-(glycyl-sarcosyloxy)-1-pentyl-1H,12H-pyrano[3″,4″:6′,7′]indolizino[1′,2′:6,5]pyrido[4,3,2-de]quinazoline-10,13(9H,15H)-dione hydrochloride]
conversion to the lactone form (in words) ([1]; mouse sera, Test Example 1): quickly converted to the lactone form | compound 2A (measured values, %) ([1]; incubation 0 minutes): 0% | compound 2A (measured values, %) ([1]; incubation 30 minutes): 0% | compound 2A (measured values, %) ([1]; incubation 60 minutes): 0% | compound 2A (measured values, %) ([1]; incubation 120 minutes): 0% | compound 2A (measured values, %) ([1]; incubation 360 minutes): 0% | conversion to the lactone form (in words) ([2]; dog sera, Test Example 1): quickly converted to the lactone form | compound 2A (measured values, %) ([2]; incubation 0 minutes): 0% | compound 2A (measured values, %) ([2]; incubation 30 minutes): 0% | compound 2A (measured values, %) ([2]; incubation 60 minutes): 0% | compound 2A (measured values, %) ([2]; incubation 120 minutes): 0% | compound 2A (measured values, %) ([2]; incubation 360 minutes): 0% | compound 2A (measured values, %) ([3]; incubation 0 minutes): 0% | compound 2A (measured values, %) ([3]; incubation 30 minutes): 0% | compound 2A (measured values, %) ([3]; incubation 60 minutes): 0% | compound 2A (measured values, %) ([3]; incubation 120 minutes): 0% | compound 2A (measured values, %) ([3]; incubation 360 minutes): 0% | conversion to the lactone form (in words) ([3]; mouse sera, Test Example 5): quickly converted to the lactone form | conversion to the lactone form (in words) ([4]; human sera, Test Example 1): quickly converted to the lactone form | compound 2A (measured values, %) ([4]; incubation 0 minutes): 0% | compound 2A (measured values, %) ([4]; incubation 30 minutes): 0% | compound 2A (measured values, %) ([4]; incubation 60 minutes): 0% | compound 2A (measured values, %) ([4]; incubation 120 minutes): 0% | compound 2A (measured values, %) ([4]; incubation 360 minutes): 0% | compound 2A (measured values, %) ([5]; incubation 0 minutes): 0% | compound 2A (measured values, %) ([5]; incubation 30 minutes): 0% | compound 2A (measured values, %) ([5]; incubation 60 minutes): 0% | compound 2A (measured values, %) ([5]; incubation 120 minutes): 0% | compound 2A (measured values, %) ([5]; incubation 360 minutes): 0% | conversion to the lactone form (in words) ([5]; monkey sera, Test Example 5): quickly converted to the lactone form | TGI (%) on Day 21 ([6]; 0.9 mg/kg intravenously): 45% | TGI (%) on Day 21 ([6]; 1.9 mg/kg intravenously): 52% | TGI (%) on Day 21 ([6]; 3.75 mg/kg intravenously): 72% | TGI (%) on Day 21 ([6]; 7.5 mg/kg intravenously): 74% | TGI (%) on Day 21 ([6]; 15 mg/kg intravenously): 85% | TGI (%) on Day 21 ([6]; 30 mg/kg intravenously): 97% | TGI (%) on Day 21 ([6]; 60 mg/kg intravenously): 110% | solubility [7]: > 10000 µg/mL | conversion to the lactone form (in words) ([8]; monkey sera, Test Example 1): quickly converted to the lactone form | compound 2A (measured values, %) ([8]; incubation 0 minutes): 0% | compound 2A (measured values, %) ([8]; incubation 30 minutes): 0% | compound 2A (measured values, %) ([8]; incubation 60 minutes): 0% | compound 2A (measured values, %) ([8]; incubation 120 minutes): 0% | compound 2A (measured values, %) ([8]; incubation 360 minutes): 0% | compound 2A (measured values, %) ([9]; incubation 0 minutes): 0% | compound 2A (measured values, %) ([9]; incubation 30 minutes): 0% | compound 2A (measured values, %) ([9]; incubation 60 minutes): 0% | compound 2A (measured values, %) ([9]; incubation 120 minutes): 0% | compound 2A (measured values, %) ([9]; incubation 360 minutes): 0% | conversion to the lactone form (in words) ([9]; rat sera, Test Example 5): quickly converted to the lactone form | compound 2A (measured values, %) ([10]; incubation 0 minutes): 0% | compound 2A (measured values, %) ([10]; incubation 30 minutes): 0% | compound 2A (measured values, %) ([10]; incubation 60 minutes): 0% | compound 2A (measured values, %) ([10]; incubation 120 minutes): 0% | compound 2A (measured values, %) ([10]; incubation 360 minutes): 0% | conversion to the lactone form (in words) ([10]; dog sera, Test Example 5): quickly converted to the lactone form
